Values joined by “and” are separate entries in the source; they are usually repeats but may differ in a detail not shown here. Equal values may be shown once. Toxic doses and inconclusive results are not listed.

In the assay the test system is CD2F1 mice, L1210 leukemia ip, survival T/C. Nature of the assay: NCI In Vivo Anticancer Drug Screen. Data for tumor model L1210 Leukemia (intraperitoneal) in CD2F1 (CDF1) mice. Particulars: endpoint: mean survival time, higher = longer survival. The method in brief:
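Each value reflects a quotient of treated over vehicle control outcomes in mice with a transplanted tumor.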

The mark [1] stands for this setting: dose: 50.0 mg/kg/injection, schedule: Q01DX009 (ip), vehicle: saline with Tween-80.
Setting [2] is: dose: 100.0 mg/kg/injection, schedule: Q01DX009 (ip), vehicle: saline with Tween-80.
Where [3] appears, read: dose: 200.0 mg/kg/injection, schedule: Q01DX009 (ip), vehicle: saline with Tween-80.
Where [4] appears, read: dose: 100.0 mg/kg/injection, schedule: Q01DX001 (ip), vehicle: Klucel (hydroxypropylcellulose) (HPC).
[5] abbreviates: dose: 200.0 mg/kg/injection, schedule: Q01DX001 (ip), vehicle: Klucel (hydroxypropylcellulose) (HPC).
Setting [6] is: dose: 400.0 mg/kg/injection, schedule: Q01DX001 (ip), vehicle: Klucel (hydroxypropylcellulose) (HPC).
Where [7] appears, read: dose: 6.25 mg/kg/injection, schedule: Q01DX009 (ip), vehicle: saline with Tween-80.
[8] abbreviates: dose: 12.5 mg/kg/injection, schedule: Q01DX009 (ip), vehicle: saline with Tween-80.
The mark [9] stands for this setting: dose: 25.0 mg/kg/injection, schedule: Q01DX009 (ip), vehicle: saline with Tween-80.
The mark [10] stands for this setting: dose: 100.0 mg/kg/injection, schedule: Q04DX003 (ip), vehicle: saline with Tween-80.
[11] abbreviates: dose: 200.0 mg/kg/injection, schedule: Q04DX003 (ip), vehicle: saline with Tween-80.
The mark [12] stands for this setting: dose: 400.0 mg/kg/injection, schedule: Q04DX003 (ip), vehicle: saline with Tween-80.
Where [13] appears, read: dose: 6.25 mg/kg/injection, schedule: Q04DX003 (ip), vehicle: saline.
Where [14] appears, read: dose: 12.5 mg/kg/injection, schedule: Q04DX003 (ip), vehicle: saline.
The mark [15] stands for this setting: dose: 25.0 mg/kg/injection, schedule: Q04DX003 (ip), vehicle: saline.
The mark [16] stands for this setting: dose: 100.0 mg/kg/injection, schedule: Q04DX003 (ip), vehicle: saline.
Where [17] appears, read: dose: 200.0 mg/kg/injection, schedule: Q04DX003 (ip), vehicle: saline.
[18] abbreviates: dose: 400.0 mg/kg/injection, schedule: Q01DX009 (ip), vehicle: saline with Tween-80.

Regarding `NS(=O)(=O)c1ccc(N2CCCCC2)c([N+](=O)[O-])c1`, the T/C (dose: 100.0 mg/kg/injection, schedule: Q01DX009 (ip), vehicle: other) was 95 % of control; the T/C (dose: 100.0 mg/kg/injection, schedule: Q04DX002 (ip), vehicle: saline with Tween-80) is 91 % of control; the T/C (dose: 200.0 mg/kg/injection, schedule: Q01DX009 (ip), vehicle: other) is 95 % of control; the T/C (dose: 200.0 mg/kg/injection, schedule: Q04DX002 (ip), vehicle: saline with Tween-80) was 98 % of control; the T/C (dose: 400.0 mg/kg/injection, schedule: Q01DX009 (ip), vehicle: other) is 101 % of control; the T/C (dose: 400.0 mg/kg/injection, schedule: Q04DX002 (ip), vehicle: saline with Tween-80) is 100 % of control.

In the case of `CCCCCCCCCCCCCCBr`, the T/C under setting [1] was 96 % of control, the T/C under setting [2] is 103 % of control and the T/C under setting [3] was 96 % of control.

As to `S=C1SC2CCCCC2S1` (stereo not drawn), the T/C is, setting by setting: under setting [4], 104 % of control; under setting [5], 107 % of control; under setting [6], 98 % of control.

On to `Oc1ccc(CCl)cc1O`, for which the T/C (dose: 25.0 mg/kg/injection, schedule: Q01DX001 (ip), vehicle: saline with Tween-80) is 107 % of control; the T/C (dose: 50.0 mg/kg/injection, schedule: Q01DX001 (ip), vehicle: saline with Tween-80) was 100 % of control; the T/C (dose: 100.0 mg/kg/injection, schedule: Q01DX001 (ip), vehicle: saline with Tween-80) is 89 % of control and 103 % of control.

As to `CS(=O)(=O)OCCN(CCOS(C)(=O)=O)c1ccc(C=O)cc1`, the T/C is, setting by setting: (dose: 3.12 mg/kg/injection, schedule: Q01DX009 (ip), vehicle: saline with Tween-80) 113 % of control and 115 % of control; under setting [7], 115 % of control and 112 % of control; under setting [8], 117 % of control; (dose: 12.5 mg/kg/injection, schedule: Q01DX009 (ip), vehicle: saline) 96 % of control; under setting [9], 112 % of control; (dose: 25.0 mg/kg/injection, schedule: Q01DX009 (ip), vehicle: saline) 102 % of control. The T/C under setting [1] was 95 % of control.

On to `O=NN1C(=O)C2CC3CC(C2)CC1C3`, for which, for the setting “dose: 12.5 mg/kg/injection, schedule: Q04DX003 (ip), vehicle: acetone”, the T/C was 94 % of control.

With `Cc1ccc(C(=O)NCCCOc2ccc(N3C(N)=NC(N)=NC3(C)C)cc2Cl)cc1S(=O)(=O)F`, the T/C by setting is: under setting [8], 106 % of control; under setting [9], 103 % of control; under setting [1], 103 % of control; under setting [2], 106 % of control.

On to `Cc1ccccc1CS`, for which the T/C reads like this: under setting [2], 93 % of control; under setting [10], 103 % of control; under setting [3], 94 % of control; under setting [11], 100 % of control; under setting [12], 104 % of control.

Take `N=Cc1ccccc1`: the T/C is 99 % of control under setting [4], 96 % of control under setting [5] and 105 % of control under setting [6].

Take `c1ccc(Sc2cccc3ccccc23)cc1`: the T/C is 102 % of control under setting [10], 93 % of control under setting [11] and 91 % of control under setting [12].

Turning to `Nc1nc(=O)n(C2OC(CO)C(O)C2O)c(=O)[nH]1` (stereo not drawn), the T/C by setting is: (dose: 3.12 mg/kg/injection, schedule: Q04DX003 (ip), vehicle: saline) 108 % of control; under setting [13], 97 % of control; under setting [14], 103 % of control; under setting [15], 95 % of control; (dose: 50.0 mg/kg/injection, schedule: Q04DX003 (ip), vehicle: saline) 92 % of control; under setting [16], 100 % of control. Also, under setting [17], the T/C was 95 % of control.

In the case of `Nc1ccc2[nH]c(-c3ccc(S(=O)(=O)F)cc3)cc(=O)c2c1`, the T/C by setting is: under setting [2], 102 % of control; under setting [3], 106 % of control; under setting [18], 113 % of control.

With `CC(C)(C)CC(C)(C)c1ccc(OCCOc2ccccc2NS(=O)(=O)c2ccc(N)cc2)cc1`, the T/C by setting is: under setting [4], 98 % of control; under setting [5], 96 % of control.

For the compound `CO[Si](c1ccccc1)(c1ccccc1)c1ccc(Br)cc1`, the T/C was 96 % of control under setting [10], 98 % of control under setting [11] and 102 % of control under setting [12].

As for `CS(=O)(=O)c1ccncc1`, the T/C (dose: 100.0 mg/kg/injection, schedule: Q04DX003 (ip), vehicle: saline sonified) is 95 % of control and the T/C (dose: 200.0 mg/kg/injection, schedule: Q04DX003 (ip), vehicle: saline sonified) is 98 % of control.

`Cc1cc2c3ccc(C)[n+](C)c3ccc2n1C`: the T/C (dose: 1.19 mg/kg/injection, schedule: Q01DX001 (ip), vehicle: saline) is 103 % of control; the T/C (dose: 2.37 mg/kg/injection, schedule: Q01DX001 (ip), vehicle: saline) was 109 % of control; the T/C (dose: 4.75 mg/kg/injection, schedule: Q01DX001 (ip), vehicle: saline) is 97 % of control.

Turning to `CCC(=O)OC1(c2ccccc2)CCN(C/C=C/c2ccc(F)cc2)CC1`, the T/C by setting is: under setting [7], 98 % of control; under setting [8], 98 % of control; under setting [9], 110 % of control.

Consider `CC(Br)C(=O)OCc1ccccc1` (stereo not drawn), for which the T/C is 95 % of control under setting [10], 95 % of control under setting [11] and 95 % of control under setting [12].

With `O=C(O)C(O)C(O)C(O)C(O)CO.[NH-]C1CCCCC1[NH-].[Pt+2]` (stereo not drawn), the T/C reads like this: under setting [13], 150 % of control and 290 % of control; under setting [14], 230 % of control and 277 % of control; under setting [15], 244 % of control and 314 % of control.

Consider `CSC(=S)N(C)/N=C/c1ccccc1O`, for which the T/C under setting [2] is 97 % of control; the T/C under setting [10] is 102 % of control; the T/C under setting [3] was 93 % of control; the T/C under setting [11] was 92 % of control; the T/C under setting [18] was 92 % of control; the T/C under setting [12] is 100 % of control.

For the compound `CCOC(=O)NC1CC(OC(=O)c2ccc(C)cc2)C(COC(=O)c2ccc(C)cc2)O1` (stereo not drawn), the T/C runs as follows: under setting [2], 95 % of control; under setting [3], 92 % of control; under setting [18], 100 % of control.

Turning to `CC(O)c1ccc2c(c1)N(CCCN1CCN(CCO)CC1)c1ccccc1S2` (stereo not drawn), under setting [16], the T/C is 97 % of control.

In the case of `O=C(c1ccc2c(c1)OCO2)c1ccc[nH]1`, the T/C under setting [10] is 94 % of control and the T/C under setting [11] was 91 % of control.

Take `NC(CS)=NCc1ccccc1`: the T/C (dose: 6.25 mg/kg/injection, schedule: Q04DX002 (ip), vehicle: saline) was 108 % of control; the T/C (dose: 12.5 mg/kg/injection, schedule: Q04DX002 (ip), vehicle: saline) is 115 % of control; the T/C (dose: 25.0 mg/kg/injection, schedule: Q04DX002 (ip), vehicle: saline) was 101 % of control.

`N#CC1(C#N)OC1(C#N)c1ccccc1` (stereo not drawn): the T/C runs as follows: (dose: 3.0 mg/kg/injection, schedule: Q01DX009 (ip), vehicle: saline with Tween-80) 101 % of control; (dose: 6.25 mg/kg/injection, schedule: Q01DX001 (ip), vehicle: saline with Tween-80) 95 % of control; (dose: 12.0 mg/kg/injection, schedule: Q01DX009 (ip), vehicle: saline with Tween-80) 98 % of control.

With `CC1CCC(C(C)C)C(NCCO)C1` (stereo not drawn), the T/C was 96 % of control (dose: 18.8 mg/kg/injection, schedule: Q01DX009 (ip), vehicle: saline); 97 % of control (dose: 37.5 mg/kg/injection, schedule: Q01DX009 (ip), vehicle: saline); 100 % of control (dose: 75.0 mg/kg/injection, schedule: Q01DX009 (ip), vehicle: saline).

In the case of `O=C(CBr)c1cc(-c2ccc(Cl)cc2)nc2c(Cl)cc(Cl)cc12`, the T/C runs as follows: (dose: 100.0 mg/kg/injection, schedule: Q01DX001 (ip), vehicle: saline) 91 % of control; (dose: 200.0 mg/kg/injection, schedule: Q01DX001 (ip), vehicle: saline) 97 % of control; (dose: 400.0 mg/kg/injection, schedule: Q01DX001 (ip), vehicle: saline) 103 % of control.

As to `O=C(O)C(O)(c1ccccc1)c1ccsc1` (stereo not drawn), the T/C under setting [10] is 101 % of control, the T/C under setting [11] is 98 % of control and the T/C under setting [12] was 103 % of control.

On to `O=S(=O)(CS(=O)(=O)Nc1ccccc1)Nc1ccccc1`, for which the T/C under setting [10] was 109 % of control.

`CC1CC([O-])=N/[N+]1=C\c1ccccc1` (stereo not drawn): the T/C by setting is: under setting [16], 101 % of control; under setting [17], 96 % of control; (dose: 400.0 mg/kg/injection, schedule: Q04DX003 (ip), vehicle: saline) 94 % of control.

The record behind these values is PubChem BioAssay AID256 (DTP/NCI, 2004).
